Tests used:
[1] = target: T1, Human PARP-1 enzyme (Homo sapiens, UniProt P09874); experiment: In vitro Scintillation Proximity Assay (SPA) for PARP-1 inhibitory activity; assay type: biochemical; settings: read-out: in vitro SPA assay PARP-1 pIC50 (converted)
T1 construct: purchased Trevigen
In short: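 SPA assay: nicked-DNA-activated PARP-1 (0.1–0.2 μg/ml) ADP-ribosylates biotinylated histones (2 μg/ml) using [3H]-NAD+, 20 min at RT in Tris pH 8/DTT/MgCl2, stopped with 2 mM NAD+. Blank-subtracted cpm expressed as % control; IC50 by linear interpolation, reported as pIC50 (10−5 to 3×10−9 M tested).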

[2] = system: HCT116 cells; experiment: Mitotic arrest assay on HCT116 cells (phospho-histone H3 Ser10); assay type: cell-based, human; settings: Homo sapiens, HCT-116, HCT116 cells; lowest active dose; read-out: Mitotic arrest HCT116 LAD (converted)
In short: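 Read-out is imaging of phospho-histone H3 Ser10 (Alexa Fluor 488) with Hoechst nuclear counting, after 6 h compound exposure at 37 °C, DMSO ≤0.1%. LAD is the lowest dose at which the blank-corrected value over SD exceeds 5; triplicates, low-count wells excluded.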

T1 sequence (P09874 whole entry): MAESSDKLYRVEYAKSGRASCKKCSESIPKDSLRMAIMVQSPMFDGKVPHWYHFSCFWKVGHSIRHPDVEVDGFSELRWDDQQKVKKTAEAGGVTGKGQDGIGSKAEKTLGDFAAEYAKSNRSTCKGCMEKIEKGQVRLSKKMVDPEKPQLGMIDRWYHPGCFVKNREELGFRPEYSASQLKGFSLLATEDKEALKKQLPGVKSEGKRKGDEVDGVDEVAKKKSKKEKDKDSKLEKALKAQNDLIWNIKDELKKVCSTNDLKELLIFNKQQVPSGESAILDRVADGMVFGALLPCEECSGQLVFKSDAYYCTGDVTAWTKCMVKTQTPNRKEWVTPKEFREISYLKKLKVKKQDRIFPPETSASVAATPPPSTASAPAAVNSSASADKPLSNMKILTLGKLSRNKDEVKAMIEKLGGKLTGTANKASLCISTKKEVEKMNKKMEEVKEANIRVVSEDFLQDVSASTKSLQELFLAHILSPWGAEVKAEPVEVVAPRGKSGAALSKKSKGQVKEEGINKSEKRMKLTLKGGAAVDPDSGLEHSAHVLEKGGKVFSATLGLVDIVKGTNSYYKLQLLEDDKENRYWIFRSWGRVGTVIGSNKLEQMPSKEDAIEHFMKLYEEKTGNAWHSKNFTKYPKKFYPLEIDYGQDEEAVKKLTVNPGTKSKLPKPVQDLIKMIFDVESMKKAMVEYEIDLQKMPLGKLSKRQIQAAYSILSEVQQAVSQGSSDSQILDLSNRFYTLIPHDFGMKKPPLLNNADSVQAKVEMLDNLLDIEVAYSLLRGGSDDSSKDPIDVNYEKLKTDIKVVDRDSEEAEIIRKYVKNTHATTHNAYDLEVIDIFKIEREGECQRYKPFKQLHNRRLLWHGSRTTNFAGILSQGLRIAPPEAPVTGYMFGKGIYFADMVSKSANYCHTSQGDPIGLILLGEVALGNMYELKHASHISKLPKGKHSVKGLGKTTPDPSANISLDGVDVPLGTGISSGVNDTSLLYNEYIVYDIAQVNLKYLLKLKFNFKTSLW

| Structure (SMILES) | IC50 [1] [µM] | minimal effective concentration [2] [µM] |
| --- | --- | --- |
| CCc1cc2ccc(C(C)(C#N)Cc3nccn3CC)cc2[nH]c1=O (centres unmarked) [Compound 337] | 0.398 | 1 |
| CCc1cc2ccc(C(C)(C#N)Cc3nc4ccccc4n3C)cc2[nH]c1=O (centres unmarked) [Compound 338] | 0.2 | 0.3 |
| CCc1cc2ccc(C(C)(C#N)Cc3cccc(C)n3)cc2[nH]c1=O (centres unmarked) [Compound 343] | 0.0794 | 0.3 |
| CCc1cc2ccc(C(C)(C#N)Cc3cccc(Br)n3)cc2[nH]c1=O (centres unmarked) [Compound 344] | 0.0631 | 0.3 |
| CCc1cc2ccc(C(C)(C#N)Cc3cccc(CO)n3)cc2[nH]c1=O (centres unmarked) [Compound 345] | 0.158 | 0.3 |
| CCc1cc2ccc(C(C)(C#N)Cc3ccc(OC)nc3)cc2[nH]c1=O (centres unmarked) [Compound 352] | 0.1 | 1 |
| CCc1cc2ccc(C(C)(C#N)Cc3cccc(OC)n3)cc2[nH]c1=O (centres unmarked) [Compound 353] | 0.0794 | 0.3 |
| CCc1cc2ccc(C(C)(C#N)Cc3cnc(OC)nc3Cl)cc2[nH]c1=O (centres unmarked) [Compound 356] | 0.126 | 0.1 |
| CCc1cc2ccc(C(C)(C#N)Cc3cnc(OC)nc3OC)cc2[nH]c1=O (centres unmarked) [Compound 357] | 0.0794 | 0.3 |
| CCc1cc2ccc(C(C)(C#N)Cc3cc(OC)nc(OC)n3)cc2[nH]c1=O (centres unmarked) [Compound 358] | 0.0501 | 0.3 |
| CCc1cc2ccc(C(C)(C#N)Cc3nc(Cl)cc(N(C)C)n3)cc2[nH]c1=O (centres unmarked) [Compound 359] | 0.0794 | 0.1 |
| CCc1cc2ccc(C(C)(C#N)Cc3nccc(OC)n3)cc2[nH]c1=O (centres unmarked) [Compound 360] | 0.1 | 1 |
| CCc1cc2ccc(C(C)(C#N)Cc3cc(OCCOC)nc(C)n3)cc2[nH]c1=O (centres unmarked) [Compound 363] | 0.158 | 3 |
| CCc1cc2ccc(C(C)(C#N)Cc3cc(N(C)C)nc(Cl)n3)cc2[nH]c1=O (centres unmarked) [Compound 364] | 0.158 | 1 |
| CCc1cc2ccc(C(C)(C#N)Cc3cc(OC)nc(C)n3)cc2[nH]c1=O (centres unmarked) [Compound 366] | 0.126 | 0.3 |
| CCc1cc2ccc(C(C)(C#N)Cc3cc(OCCOC)nc(Cl)n3)cc2[nH]c1=O (centres unmarked) [Compound 367] | 0.0794 | 1 |
| CCc1cc2ccc(C(C)(C#N)Cc3nc(C)cc(C)n3)cc2[nH]c1=O (centres unmarked) [Compound 368] | 0.316 | 1 |
| CCc1cc2ccc(C(C)(C#N)Cc3nccc(OCCOC)n3)cc2[nH]c1=O (centres unmarked) [Compound 369] | 0.126 | 1 |
| CCc1cc2ccc(C(C)(C#N)Cc3nc(Cl)cc(OCCOC)n3)cc2[nH]c1=O (centres unmarked) [Compound 370] | 0.2 | 1 |
| CCc1cc2ccc(C(C)(C#N)Cc3cc(Cl)nc(Cl)c3)cc2[nH]c1=O (centres unmarked) [Compound 372] | 0.1 | 0.1 |
| CCc1cc2ccc(C(C)(C#N)Cc3cc(OC)ccn3)cc2[nH]c1=O (centres unmarked) [Compound 373] | 0.1 | 1 |
| CCc1cc2ccc(C(C)(C#N)CC3CCc4ccccc4O3)cc2[nH]c1=O (centres unmarked) [Compound 399] | 0.316 | 0.3 |
